{"source": "paper PMC4895354", "about": "(2016)", "key": {"[1]": {"tested_on": "GCGC (RNA, hairpin) GCGCGCGCGAAAGCGCGCGC", "experiment": "fluorescence titration, sigmoidal fit", "details": "185 mM NaCl, 8 mM Na2HPO4, pH 7.0, 0.1 mM EDTA, RNA titrated"}, "[2]": {"tested_on": "GGCC (RNA, hairpin) GGCCGGCCGAAAGGCCGGCC", "experiment": "fluorescence titration, sigmoidal fit", "details": "185 mM NaCl, 8 mM Na2HPO4, pH 7.0, 0.1 mM EDTA, RNA titrated"}, "[3]": {"tested_on": "AUAU (RNA, hairpin) AUAUAUAUAUAUGAAAAUAUAUAUAUAU", "experiment": "fluorescence titration, sigmoidal fit", "details": "185 mM NaCl, 8 mM Na2HPO4, pH 7.0, 0.1 mM EDTA, RNA titrated"}, "[4]": {"tested_on": "AAUU (RNA, hairpin) AAUUAAUUAAUUGAAAAAUUAAUUAAUU", "experiment": "fluorescence titration, sigmoidal fit", "details": "185 mM NaCl, 8 mM Na2HPO4, pH 7.0, 0.1 mM EDTA, RNA titrated"}, "[5]": {"tested_on": "r(AUUCU)11 (RNA, repeat) AUUCUAUUCUAUUCUAUUCUAUUCUAUUCUAUUCUAUUCUAUUCUAUUCUAUUCU", "experiment": "fluorescence titration, lattice (Scatchard-type) fit", "details": "185 mM NaCl, 8 mM Na2HPO4, pH 7.0, 0.1 mM EDTA, microscopic Kd, per site"}, "[6]": {"tested_on": "r(AUUCU)11 for TR-FRET (RNA, repeat) AUUCUAUUCUAUUCUAUUCUAUUCUAUUCUAUUCUAUUCUAUUCUAUUCUAUUCU", "experiment": "TR-FRET, inhibition of RNA-protein complex", "details": "110 mM KCl, 110 mM NaCl, 2 mM MgCl2, 2 mM CaCl2, 20 mM HEPES pH 7.5, DGCR8Δ 40 nM displaced, RNA 60 nM"}, "[7]": {"tested_on": "r(AUUCU)11, 5'-32P labelled (RNA, repeat) AUUCUAUUCUAUUCUAUUCUAUUCUAUUCUAUUCUAUUCUAUUCUAUUCUAUUCU", "experiment": "filter binding (dot blot)", "details": "PBS, 1 mM MgCl2; pH 7.4; 50 μg/ml BSA; RNA 100 nM, compound 1 μM"}, "[8]": {"tested_on": "r(AUUCU)11 (RNA, repeat) AUUCUAUUCUAUUCUAUUCUAUUCUAUUCUAUUCUAUUCUAUUCUAUUCUAUUCU", "experiment": "fluorescence titration, sigmoidal fit", "details": "185 mM NaCl, 8 mM Na2HPO4, pH 7.0, 0.1 mM EDTA"}, "[9]": {"tested_on": "r(CCUG)12 (RNA, repeat) CCUGCCUGCCUGCCUGCCUGCCUGCCUGCCUGCCUGCCUGCCUGCCUG", "experiment": "fluorescence titration, sigmoidal fit", "details": "185 mM NaCl; 8 mM Na2HPO4, pH 7.0, 0.1 mM EDTA; range over four repeats 36–87 nM"}, "[10]": {"tested_on": "r(CUG)12 (RNA, repeat) CUGCUGCUGCUGCUGCUGCUGCUGCUGCUGCUGCUG", "experiment": "fluorescence titration, sigmoidal fit", "details": "185 mM NaCl; 8 mM Na2HPO4, pH 7.0, 0.1 mM EDTA; range over four repeats 36–87 nM"}, "[11]": {"tested_on": "r(CGG)12 (RNA, repeat) CGGCGGCGGCGGCGGCGGCGGCGGCGGCGGCGGCGG", "experiment": "fluorescence titration, sigmoidal fit", "details": "185 mM NaCl; 8 mM Na2HPO4, pH 7.0, 0.1 mM EDTA; range over four repeats 36–87 nM"}, "[12]": {"tested_on": "r(AUUCU)11, 5'-32P labelled (RNA, repeat) AUUCUAUUCUAUUCUAUUCUAUUCUAUUCUAUUCUAUUCUAUUCUAUUCUAUUCU", "experiment": "RNase V1 protection", "details": "1× RNA Structure Buffer; compound 0-20 μM; protects each AU pair"}, "[13]": {"tested_on": "AAUU (RNA, hairpin) AAUUAAUUAAUUGAAAAAUUAAUUAAUU", "experiment": "fluorescence titration, lattice (Scatchard-type) fit", "details": "185 mM NaCl; 8 mM Na2HPO4, pH 7.0, 0.1 mM EDTA; microscopic Kd; per site"}, "[14]": {"tested_on": "AUAU (RNA, hairpin) AUAUAUAUAUAUGAAAAUAUAUAUAUAU", "experiment": "fluorescence titration, lattice (Scatchard-type) fit", "details": "185 mM NaCl; 8 mM Na2HPO4, pH 7.0, 0.1 mM EDTA; microscopic Kd; per site"}, "DGCR8Δ": {"biological_target": "T1, DGCR8Δ (UniProt Q8WYQ5)", "T1 sequence": "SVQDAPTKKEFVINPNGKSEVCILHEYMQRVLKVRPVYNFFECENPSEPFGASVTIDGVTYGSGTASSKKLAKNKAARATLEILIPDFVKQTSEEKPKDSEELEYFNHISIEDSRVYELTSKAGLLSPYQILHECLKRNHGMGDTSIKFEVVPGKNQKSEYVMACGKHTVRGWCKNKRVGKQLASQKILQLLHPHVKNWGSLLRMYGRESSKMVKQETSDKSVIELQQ", "experiment": "EMSA", "details": "2 mM Mg2+, 2 mM Ca2+; EMSA: 20 mM HEPES pH 7.5, 110 mM KCl, 110 mM NaCl, 0.1% BSA, 2 mM MgCl2, 2 mM CaCl2, 0.05% Tween-20, 5 mM DTT, 15 min, room temperature; native 5% PAGE"}}}
{"molecule": "[N-]=[N+]=NCCCNC(=N)c1ccc(-c2ccc(-c3ccc(C(=N)N)cc3)o2)cc1", "values": [{"measurement": "EC50", "setting": "[1]; 1 μM compound", "result": "> 2,000 nM"}, {"measurement": "EC50", "setting": "[2]; 1 μM compound", "result": "> 6,000 nM"}, {"measurement": "EC50", "setting": "[3]; 1 μM compound, Hill 1.0±0.13", "result": "31 ± 4", "unit": "nM"}, {"measurement": "EC50", "setting": "[4]; 1 μM compound, Hill 1.0±0.17", "result": "45 ± 6", "unit": "nM"}, {"measurement": "Kd", "setting": "[5]; Hill 1.3±0.1", "result": "375 ± 34", "unit": "nM"}, {"measurement": "binding", "setting": "[6]; ~25% inhibition at 1.5 μM", "result": "yes"}]}
{"molecule": "CCCN(CC(=O)N(CCC)CC(=O)N(CC(N)=O)Cc1cn(CCCNC(=N)c2ccc(-c3ccc(-c4ccc(C(=N)N)cc4)o3)cc2)nn1)C(=O)CNCc1cn(CCCNC(=N)c2ccc(-c3ccc(-c4ccc(C(=N)N)cc4)o3)cc2)nn1", "values": [{"measurement": "binding", "setting": "[7]", "result": "yes"}, {"measurement": "EC50", "setting": "[8]; without PEG 8000", "result": "146 ± 8", "unit": "nM"}, {"measurement": "Kd", "setting": "[5]; Hill 1.4±0.4", "result": "185 ± 1.0", "unit": "nM"}, {"measurement": "binding", "setting": "[6]; ~70% inhibition at 1.5 μM", "result": "yes"}]}
{"molecule": "N=C(N)c1ccc(-c2ccc(-c3ccccc3)o2)cc1", "values": [{"measurement": "EC50", "setting": "[1]; 3 μM compound, Hill 0.92±0.34", "result": "240 ± 10", "unit": "nM"}, {"measurement": "EC50", "setting": "[2]; 3 μM compound, Hill 1.4±0.34", "result": "390 ± 20", "unit": "nM"}, {"measurement": "binding", "setting": "[9]", "result": "yes"}, {"measurement": "binding", "setting": "[8]; range over four repeats 36–87 nM", "result": "yes"}, {"measurement": "EC50", "setting": "[3]; 3 μM compound, Hill 1.5±0.32", "result": "45 ± 1", "unit": "nM"}, {"measurement": "EC50", "setting": "[4]; 3 μM compound, Hill 3.1±0.79", "result": "170 ± 10", "unit": "nM"}, {"measurement": "binding", "setting": "[10]", "result": "yes"}, {"measurement": "binding", "setting": "[11]", "result": "yes"}]}
{"molecule": "N=C(N)c1ccc(-c2ccc(-c3ccc(C(=N)N)cc3)o2)cc1", "values": [{"measurement": "EC50", "setting": "[1]; 1 μM compound, Hill 0.77±0.16", "result": "6,950±250 nM"}, {"measurement": "EC50", "setting": "[2]; 1 μM compound, Hill 0.85±0.08", "result": "8,550±250 nM"}, {"measurement": "EC50", "setting": "[3]; 1 μM compound, Hill 1.6±0.28", "result": "190 ± 20", "unit": "nM"}, {"measurement": "binding", "setting": "[12]", "result": "yes"}, {"measurement": "Kd", "setting": "[13]", "result": 320, "unit": "nM"}, {"measurement": "EC50", "setting": "[4]; 1 μM compound, Hill 1.5±0.24", "result": "170 ± 40", "unit": "nM"}, {"measurement": "Kd", "setting": "[5]; Hill 1.7±0.2", "result": "300 ± 47", "unit": "nM"}, {"measurement": "Kd", "setting": "[14]", "result": 210, "unit": "nM"}]}
{"molecule": "AUUCUAUUCUAUUCUAUUCUAUUCUAUUCUAUUCUAUUCUAUUCUAUUCUAUUCU [r(AUUCU)11]", "values": [{"measurement": "Kd", "setting": "DGCR8Δ", "result": 1600, "unit": "nM"}]}
